Results taken from ChEMBL document CHEMBL1909046, “DrugMatrix in vitro pharmacology data”.

What was measured:
[1] = DRUGMATRIX: Calcium Channel Type L, Dihydropyridine radioligand binding (ligand: [3H] Nitrendipine); assay type: cell membranes, Rattus norvegicus, Wistar, Cerebral cortex, Membrane; conditions: Not Active = under 50% inhibition at 10 µM
[2] = molecular target: Protein kinase C alpha type (Homo sapiens, UniProt P17252); assay type: cell-based; conditions: sf9;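 further: inhibition of PKCalpha kinase activity measured in an enzyme assay with histone as the phosphorylation substrate; in other assays of this panel Not Active means under 50% inhibition at 10 µM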
[3] = DRUGMATRIX: Sigma2 radioligand binding (ligand: [3H] Ifenprodil); assay type: cell membranes, Rattus norvegicus, Wistar, Brain, Membrane; conditions: Not Active = under 50% inhibition at 10 µM
[4] = molecular target: 5-hydroxytryptamine receptor 6 (Homo sapiens, UniProt P50406); assay type: cell membranes, HeLa, Membrane; conditions: hela; further: in other assays of this panel Not Active means under 50% inhibition at 10 µM
Chain of 5-hydroxytryptamine receptor 6 (P50406 whole entry): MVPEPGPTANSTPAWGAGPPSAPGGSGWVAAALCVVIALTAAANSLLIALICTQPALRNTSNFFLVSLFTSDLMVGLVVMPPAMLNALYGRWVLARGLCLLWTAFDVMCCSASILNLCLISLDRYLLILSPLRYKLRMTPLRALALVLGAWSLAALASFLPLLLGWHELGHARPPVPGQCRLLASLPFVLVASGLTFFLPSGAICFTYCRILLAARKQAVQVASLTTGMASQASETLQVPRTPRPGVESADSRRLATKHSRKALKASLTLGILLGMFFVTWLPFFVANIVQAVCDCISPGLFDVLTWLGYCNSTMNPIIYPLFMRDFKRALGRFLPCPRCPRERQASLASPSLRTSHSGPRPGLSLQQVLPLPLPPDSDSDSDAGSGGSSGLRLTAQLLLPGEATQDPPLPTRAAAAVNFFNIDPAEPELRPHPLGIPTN

[5] = DRUGMATRIX: Potassium Channel [KATP] radioligand binding (ligand: [3H] Glyburide); assay type: cell membranes, Membrane; conditions: hit-t15, Not Active = under 50% inhibition at 10 µM

SMILES	IC50 [1]	Ki [1]	IC50 [2]	IC50 [3]	Ki [3]	IC50 [4]	IC50 [5]	Ki [5]	IC50 ([1]; read-out: IC50)	Ki ([1]; read-out: Ki)	IC50 ([5]; read-out: IC50)	Ki ([5]; read-out: Ki)
C#C[C@]1(O)CC[C@H]2[C@@H]3CCc4cc(O)ccc4[C@H]3CC[C@@]21C [ETHINYL ESTRADIOL]	Not Active	Not Active	Not Active	Not Active	Not Active	Not Active	Not Active	Not Active	–	–	–	–
OCCO [ETHYLENE GLYCOL]	Not Active	Not Active	Not Active	Not Active	Not Active	Not Active	Not Active	Not Active	–	–	–	–
CC(=O)OCC(CCn1cnc2cnc(N)nc21)COC(C)=O [FAMCICLOVIR]	Not Active	Not Active	Not Active	Not Active	Not Active	Not Active	Not Active	Not Active	–	–	–	–
O=C(O)Cc1ccc(-c2ccccc2)cc1 [FELBINAC]	Not Active	Not Active	Not Active	Not Active	Not Active	Not Active	Not Active	Not Active	–	–	–	–
CCOC(=O)C1=C(C)NC(C)=C(C(=O)OC)C1c1cccc(Cl)c1Cl (centres undefined) [FELODIPINE]	–	–	Not Active	Not Active	Not Active	Not Active	Not Active	Not Active	0.082 nM	0.053 nM	–	–
CC(C(=O)O)c1ccc(-c2ccccc2)c(F)c1 (centres undefined) [FLURBIPROFEN]	Not Active	Not Active	Not Active	Not Active	Not Active	Not Active	Not Active	Not Active	–	–	–	–
Cc1cn[nH]c1 [FOMEPIZOLE]	Not Active	Not Active	Not Active	Not Active	Not Active	Not Active	Not Active	Not Active	–	–	–	–
NC[C@@H]1O[C@H](O[C@H]2[C@@H](O)[C@H](O[C@@H]3[C@@H](O)[C@H](N)C[C@H](N)[C@H]3O[C@H]3O[C@H](CN)[C@@H](O)[C@H](O)[C@H]3N)O[C@@H]2CO)[C@H](N)[C@@H](O)[C@@H]1O [FRAMYCETIN]	Not Active	Not Active	Not Active	Not Active	Not Active	Not Active	Not Active	Not Active	–	–	–	–
C[C@H]([C@](O)(Cn1cncn1)c1ccc(F)cc1F)S(C)(=O)=O [GENACONAZOLE]	Not Active	Not Active	Not Active	Not Active	Not Active	Not Active	Not Active	Not Active	–	–	–	–
Cc1cnc(C(=O)NCCc2ccc(S(=O)(=O)NC(=O)NC3CCCCC3)cc2)cn1 [GLIPIZIDE]	Not Active	Not Active	Not Active	Not Active	Not Active	Not Active	–	–	–	–	398 nM	45 nM
Cc1c(F)c(N2CCNC(C)C2)cc2c1c(=O)c(C(=O)O)cn2C1CC1 (centres undefined) [GREPAFLOXACIN]	Not Active	Not Active	Not Active	Not Active	Not Active	Not Active	Not Active	Not Active	–	–	–	–
COc1ccccc1OCC(O)CO (centres undefined) [GUAIFENESIN]	Not Active	Not Active	Not Active	Not Active	Not Active	Not Active	Not Active	Not Active	–	–	–	–
N=C(N)N/N=C/c1c(Cl)cccc1Cl [GUANABENZ]	Not Active	Not Active	Not Active	Not Active	Not Active	Not Active	Not Active	Not Active	–	–	–	–
C[C@]12CCC(=O)C=C1CC[C@@H]1[C@@H]2[C@@H](O)C[C@@]2(C)[C@H]1CC[C@]2(O)C(=O)CO [HYDROCORTISONE]	Not Active	Not Active	Not Active	Not Active	Not Active	Not Active	Not Active	Not Active	–	–	–	–
C/C=C\c1ccc(O)c(OC)c1 [ISOEUGENOL]	Not Active	Not Active	Not Active	Not Active	Not Active	Not Active	Not Active	Not Active	–	–	–	–
NC[C@H]1O[C@H](O[C@H]2[C@H](O)[C@@H](O[C@H]3O[C@H](CO)[C@@H](O)[C@H](N)[C@H]3O)[C@H](N)C[C@@H]2N)[C@H](O)[C@@H](O)[C@@H]1O [KANAMYCIN]	Not Active	Not Active	Not Active	Not Active	Not Active	Not Active	Not Active	Not Active	–	–	–	–
CC(C(=O)O)c1ccc(CC2CCCC2=O)cc1 (centres undefined) [LOXOPROFEN]	Not Active	Not Active	Not Active	Not Active	Not Active	Not Active	Not Active	Not Active	–	–	–	–

SMILES	IC50 [1]	Ki [1]	IC50 [2]	IC50 [3]	Ki [3]	IC50 [4]	IC50 [5]	Ki [5]	IC50 ([1]; read-out: IC50)	Ki ([1]; read-out: Ki)	IC50 ([5]; read-out: IC50)	Ki ([5]; read-out: Ki)
Cc1cccc(Nc2ccccc2C(=O)O)c1C [MEFENAMIC ACID]	Not Active	Not Active	Not Active	Not Active	Not Active	Not Active	Not Active	Not Active	–	–	–	–
CC(=O)O[C@]1(C(C)=O)CC[C@H]2[C@@H]3C=C(C)C4=CC(=O)CC[C@]4(C)[C@H]3CC[C@@]21C [MEGESTROL ACETATE]	Not Active	Not Active	Not Active	Not Active	Not Active	Not Active	Not Active	Not Active	–	–	–	–
COc1ccccc1OCC(O)COC(N)=O (centres undefined) [METHOCARBAMOL]	Not Active	Not Active	Not Active	Not Active	Not Active	Not Active	Not Active	Not Active	–	–	–	–
CN(Cc1cnc2nc(N)nc(N)c2n1)c1ccc(C(=O)N[C@@H](CCC(=O)O)C(=O)O)cc1 [METHOTREXATE]	Not Active	Not Active	Not Active	Not Active	Not Active	Not Active	Not Active	Not Active	–	–	–	–
COC(=O)c1ccccc1O [METHYL SALICYLATE]	Not Active	Not Active	Not Active	Not Active	Not Active	Not Active	Not Active	Not Active	–	–	–	–
COc1ccc2cc(CCC(C)=O)ccc2c1 [NABUMETONE]	Not Active	Not Active	Not Active	Not Active	Not Active	Not Active	Not Active	Not Active	–	–	–	–
O=C(O)c1cccnc1 [NIACIN]	Not Active	Not Active	Not Active	Not Active	Not Active	Not Active	Not Active	Not Active	–	–	–	–
CNC(=C[N+](=O)[O-])NCCSCc1csc(CN(C)C)n1 [NIZATIDINE]	Not Active	Not Active	Not Active	Not Active	Not Active	Not Active	Not Active	Not Active	–	–	–	–
C[C@]12C/C(=C/O)C(=O)C[C@@H]1CC[C@@H]1[C@@H]2CC[C@@]2(C)[C@H]1CC[C@]2(C)O [OXYMETHOLONE]	Not Active	Not Active	Not Active	Not Active	Not Active	Not Active	Not Active	Not Active	–	–	–	–
CC(C)(CO)C(O)C(=O)NCCCO (centres undefined) [PANTHENOL]	Not Active	Not Active	Not Active	Not Active	Not Active	Not Active	Not Active	Not Active	–	–	–	–
COc1ccc(Cc2nccc3cc(OC)c(OC)cc23)cc1OC [PAPAVERINE]	Not Active	Not Active	Not Active	Not Active	Not Active	Not Active	Not Active	Not Active	–	–	–	–
OCCN1CCN(CCCN2c3ccccc3Sc3ccc(Cl)cc32)CC1 [PERPHENAZINE]	Not Active	Not Active	Not Active	Not Active	Not Active	Not Active	Not Active	Not Active	–	–	–	–
CCCCC1C(=O)N(c2ccccc2)N(c2ccccc2)C1=O [PHENYLBUTAZONE]	Not Active	Not Active	Not Active	Not Active	Not Active	Not Active	Not Active	Not Active	–	–	–	–
Cc1cccc(Nc2cc(Cl)nc(SCC(=O)O)n2)c1C [PIRINIXIC ACID]	Not Active	Not Active	Not Active	Not Active	Not Active	Not Active	Not Active	Not Active	–	–	–	–
CC[C@H](C)C(=O)O[C@H]1C[C@H](O)C=C2C=C[C@H](C)[C@H](CC[C@@H](O)C[C@@H](O)CC(=O)O)[C@H]21 [PRAVASTATIN]	Not Active	Not Active	Not Active	Not Active	Not Active	Not Active	Not Active	Not Active	–	–	–	–
CC(C)(Sc1cc(C(C)(C)C)c(O)c(C(C)(C)C)c1)Sc1cc(C(C)(C)C)c(O)c(C(C)(C)C)c1 [PROBUCOL]	Not Active	Not Active	Not Active	Not Active	Not Active	Not Active	Not Active	Not Active	–	–	–	–
